# According to US9879036B2, “Mitochondrial aldehyde dehydrogenase-2 binding compounds and methods of use thereof” (Aviv Therapeutics, Inc., priority 2014, dated 2018):
# “Also recorded” adds a separate entry of the source.
# What was measured:
# [1] = tested on: FANCA deficiency lymphocyte cell line (FANCA B-lymphocyte, GM13022); assay: Proliferation of FANCA deficient lymphocytes under 4 HNE challenge (alamarBlue); assay type: cell-based
# Procedure: FANCA deficiency lymphocyte cell line (Fanconi Anemia, Complementation Group A, FANCA B-lymphocyte, GM13022) was purchased from Coriell Cell Repositories (403 Haddon Ave, Camden, N.J. 08103).
# Standard cell culture conditions were used in this experiment. The culture medium (CM) consisted of culture medium RPMI1640, 15% heat-inactivated FBS, 2 mM L-glutamine, 1% Pen/Strep. Cells were suspended in 10-20 ml CM in T25 tissue culture flask in an upright position and incubated in a 37° C., 5% CO2 incubator. Cells were counted daily and diluted with fresh CM to 3×10^5 cells/ml. Cells thawed and maintained in culture for 3-12 days were used in these studies.
# Cell densities of FANCA lymphocytes were determined and cells were diluted in RPMI1640 medium containing 15% FBS, 2 mM L-glutamine, 1% Pen/Strep to desired cell density. 4000 cells in 50-75 μl were plated onto each well in total 48 wells in columns 3-10 and rows B-G. This plating arrangement provided 6-replicates per column for each experimental condition. Plate was then centrifuged at 500 rpm for 2 min to ensure better distribution of cells across the well. For background medium controls, equal volume (50-75 μl) of dilution medium were added to wells B2, C2, D2.
# For minimizing cells/medium drying in sample wells, 150 μl of 1×DPBS was added to each well of the 45 wells surrounding the sample and control wells. Plate was then incubated in a 37° C. 5% CO2 incubator for at least 4 hours before addition of new reagent.
# Compounds were diluted from 20 mM stocks in DMSO with RPMI1640 medium containing 15% FBS. RPMI1640 medium containing 15% FBS and corresponding volume of DMSO was used as controls.
# 4 HNE (64 mM in 100% ethanol) was diluted to desired concentrations with RPMI1640 base medium.
# AlamarBlue was added to each well to final 9.1 or 10% of the total volume in each well. Plate was further incubated in the 37° C. 5% CO2 incubator. The alamarBlue assay is designed to measure quantitatively the proliferation of human and animal cell lines in culture versus incubation time period.
# Plate was removed from the CO2 incubator at a pre-designated time and placed in the microplate reader. The fluorescence level in each well was monitored at Ex 554 nm and Em 590 nm. Afterwards the numeric numbers/units were used for data analyses.
# Fluorescence units in all wells were acquired by the microplate reader at each time point. Data were then exported to scientist's computer equipped with SoftMax ProS software. The average of Background units (Blk, 3×) and the average of each sample set (6 replicates) were determined. For data collected at each time point (cell culture incubation period), the average of Blk units were subtracted from the average of each set of the Sample units. These “net fluorescence unit” data were then presented in a plot consisted of different culture incubation time periods (the x-axis) versus the corresponding net fluorescence units (y-axis).
# The “net fluorescence units” of each sample set were also compared to those of the “control” at each time point. “Control fluorescence units” were considered to be 100% at all the time points. Each set of “net fluorescence units” were divided by the “Control fluorescent units” and multiplied by 100 to obtain corresponding percentages. These “relative percentage” data were then presented in a plot consisted of time points (the x-axis) versus the corresponding relative percentages to control of 100 (y-axis).
# The inhibitory effect of 4 HNE on the proliferation of FANCA lymphocytes was examined. 4000 cells in 75 μl of RPMI1640 medium containing 15% FBS were plated onto each sample well in a 96-well poly D-lysine coated black/clear cell culture plate and the plate was incubated in a 37° C. 5% CO2 incubator for 7 hours.
# Stock of 4 HNE at 64 mM was diluted with RPMI1640 medium to 10 μM, 20 μM, 30 μM, 40 μM, 60 μM, 80 μM, and 120 μM. […]
# ALDH2 = molecular target: T1, ALDH2 (Homo sapiens, UniProt P05091); assay: ALDH2 activity with 20 μM of the compound (Table 3); assay type: biochemical; details: 20 μM compound
# T1 construct: His-tag (N); made in house; host or cells: E. coli BL21
# T1 sequence (P05091 18-517): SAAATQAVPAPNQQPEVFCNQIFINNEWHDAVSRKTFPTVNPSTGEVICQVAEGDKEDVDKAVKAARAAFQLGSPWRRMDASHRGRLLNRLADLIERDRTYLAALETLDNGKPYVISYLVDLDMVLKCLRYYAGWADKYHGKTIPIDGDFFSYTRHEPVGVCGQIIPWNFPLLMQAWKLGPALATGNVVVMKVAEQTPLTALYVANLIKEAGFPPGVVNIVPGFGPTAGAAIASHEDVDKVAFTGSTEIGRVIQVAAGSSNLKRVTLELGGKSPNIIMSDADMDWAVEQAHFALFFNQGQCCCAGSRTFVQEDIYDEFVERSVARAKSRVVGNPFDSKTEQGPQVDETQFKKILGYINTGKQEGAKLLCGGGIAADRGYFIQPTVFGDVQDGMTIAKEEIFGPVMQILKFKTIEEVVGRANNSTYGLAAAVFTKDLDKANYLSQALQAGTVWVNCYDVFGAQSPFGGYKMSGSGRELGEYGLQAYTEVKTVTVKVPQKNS
# Summary of the method: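 Compound was tested at 20 μM. ALDH2 oxidation of acetaldehyde with NAD+ cofactor was followed spectrophotometrically as NADH accumulation at 340 nm. Activity is expressed relative to the enzyme's baseline activity, taken as 100%.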
# [2] = tested on: carrageenan inflammatory pain model in male C57BL/6 mice; assay: Carrageenan inflammatory pain model, Von Frey paw withdrawal threshold; assay type: in vivo; details: for contralateral paw withdrawal threshold / ipsilateral paw withdrawal threshold compared to vehicle: 180 minutes after carrageenan; for carrageenan-induced mechanical hyperalgesia: ipsilateral paw
# Procedure: Mice are acclimated to the colony room and maintained on a 12 hour/12 hour light/dark cycle. To induce plantar sensitivity to tactile stimuli, a single injection of carrageenan is administered to the plantar hindpaw of the mice and withdrawal from a mechanical stimulus is measured by applying Von Frey filaments of ascending bending force to the plantar surface of the hind paws.
# A compound of formula (I) is dissolved and administered subcutaneous (sc) or orally (po) prior to carrageenan administration and after carrageenan injections. Data is analyzed by analysis of variance (ANOVA) followed by post-hoc comparisons with Fisher Tests when appropriate.
# The analgesic effects of AC151 and Alda-1 were evaluated using the carrageenan inflammatory pain model in male C57BL/6 mice. The mice were administered AC151, Alda-1 and vehicle (saline) as a control.
# Male C57BL/6J mice from Jackson Laboratories (Bar Harbor, Me.) were used in this study. Mice were received at 6-7 weeks of age. Upon receipt, mice were assigned unique identification numbers (tail marked) and were group housed in OPTImice cages. All animals were acclimated to the colony room for at least 1 week prior to testing. During the period of acclimation, animals were examined on a regular basis, handled, and weighed to assure adequate health and suitability. Animals were maintained on a 12 hour/12 hour light/dark cycle. The room temperature was maintained between 20° C. and 23° C. with a relative humidity maintained between 30% and 70%. Chow and water were provided ad libitum for the duration of the study. All testing was performed during the animal's light cycle phase.
# To induce plantar sensitivity to tactile stimuli, a single injection of carrageenan was administered to the plantar hindpaw of the mice and three hours later withdrawal from a mechanical stimulus is measured by applying Von Frey filaments of ascending bending force (0.02 to 6 grams) to the plantar surface of the hind paws (ipsilateral and contralateral to injection). A positive response was defined as withdrawal from the Von Frey filament. Confirmation of threshold is tested by examining the filament above and below the withdrawal response. A significant decrease in withdrawal threshold is interpreted as mechanical hyperalgesia. Prior to drug or carrageenan treatment, baseline Von Frey measures were taken and used to balance animals across treatment groups.
# Alda-1 (1, 2, and 5 mg/kg) was dissolved in 50% DMSO/50% PEG and administered subcutaneous (sc), 15 min prior to carrageenan administration and twice again 30 and 150 minutes after carrageenan injections at a dose volume of 5 ml/kg. AC151 (40 and 80 mg/kg) was dissolved in saline and administered orally (po), 30 min after carrageenan administration. For one group, AC151 (80 mg/kg) was administered 15 min prior to carrageenan injections. The dose volume for this compound was 10 ml/kg.
# The initial injections of AC151 (80 mg/kg) and Alda-1 were made 15 min prior to carrageenan injections. Then, a single 3.5 μl injection of 3% carrageenan was administered to the right plantar hindpaw. Alda-1 was then administered twice, once 30 minutes after carrageenan and again 150 minutes post-carrageenan. In separate treatment groups AC151 (40 mg/kg and 80 mg/kg) as well as saline vehicle were administered 30 minutes after carrageenan injection. Von Frey measures were taken 180 minutes after carrageenan injection.
# Data were analyzed by analysis of variance (ANOVA) followed by post-hoc comparisons with Fisher Tests when appropriate. An effect was considered significant if p<0.05. […].
structure (smiles),measurement,setting,value
"CCCCCC(O)/C=C/C=O (stereo not drawn) [4 HNE, trans-4-Hydroxynonenal, reference compound]",relative cell proliferation rate (control = 100%),"[1]; 3.5 μM 4 HNE only, 25 hours to 48 hours after 4 HNE treatment",83%
same,level of FANCA cell proliferation,"[1]; 4 HNE 2.5 to 30 μM, no ALDH2 activator",reduction of the level of cell proliferation in a concentration-dependent manner
COc1ccc(CNC(=O)c2cc(-c3n[nH]cc3CO)ccc2OCC2CC2)cc1F [AC32],relative cell proliferation versus control without AC compounds,"[1]; 3.5 μM 4 HNE, 5 μM and 10 μM AC6, 10 μM AC32, 25 hours to 48 hours after 4 HNE treatment",higher levels of cell growth than “control”; also recorded: more efficient growth than control
same,FANCA-deficiency lymphocyte cell growth versus 4 HNE only or 2 μM ALDH2 activators,"[1]; 10 μM compound, pretreatment 2 hours before 6 μM 4 HNE challenge",higher levels of cell growth
same,FANCA-deficiency lymphocyte cell growth versus 4 HNE only,"[1]; pretreatment 2 hours before 3.5 μM 4 HNE challenge, 2 to 10 μM compound",higher levels of cell growth
same,activity at 20 µM,ALDH2,> 250%
COc1ccc(CNC(=O)c2cc(-c3ncccc3COC(=O)[C@H](N)C(C)C)ccc2OCC(C)C)cc1F [AC151],contralateral paw withdrawal threshold,[2],No treatment effects
same,ipsilateral paw withdrawal threshold compared to vehicle,[2]; AC151 40 and 80 mg/kg po (all groups),significantly increased paw withdrawal threshold
same,carrageenan-induced mechanical hyperalgesia,[2],attenuated carrageenan-induced mechanical hyperalgesia
"O=C(NCc1ccc2c(c1)OCO2)c1c(Cl)cccc1Cl [Alda-1, N-(1,3-Benzodioxol-5-ylmethyl)-2,6-dichlorobenzamide, reference compound]",contralateral paw withdrawal threshold,[2],No treatment effects
same,ipsilateral paw withdrawal threshold compared to vehicle,"[2]; Alda-1 5 mg/kg sc, three doses",significantly increased paw withdrawal threshold
same,carrageenan-induced mechanical hyperalgesia,[2],attenuated carrageenan-induced mechanical hyperalgesia
